What was measured:
HAV 3Cpro = HAV 3Cpro (Human hepatitis A virus genotype IB, UniProt P08617); assay: Optimized FRET protease assay, HAV 3Cpro (Example 3); type: biochemical
Method: Fluorogenic substrates with Edans and Dabcyl as a donor and quencher pair were purchased from Bachem (coronavirus substrate) or synthesized by GenScript. The viral proteases and the corresponding fluorogenic substrates are listed in Table 5, along with their sources.
Stock solutions (10 mM) of the substrates and the compounds were prepared in dimethyl sulfoxide (DMSO) and diluted in assay buffer. The assay buffer comprised 20 mM HEPES buffer containing NaCl (0 mM for HAV 3Cpro and 200 mM for all other proteases), 0.4 mM EDTA, Glycerol (60% for NV and MD145 3CLpro and 30% for TGEV and 229E 3CLpro), and 6 mM (NV and MD145 3CLpro and HAV 3Cpro)_or 4 mM (all other proteases) dithiothreitol (DTT) at pH 6 (coronavirus 3CLpro) or 8 (all other proteases). Each protease was mixed with serial dilutions of each compound or with DMSO in 25 μl of assay buffer and incubated at 37° C. for 30 min, followed by the addition of 25 μl of assay buffer containing substrate. Fluorescence readings were obtained using an excitation wavelength of 360 nm and an emission wavelength of 460 nm on a fluorescence microplate reader (FLx800; Biotek, Winooski, Vt.) at 1 h following the addition of substrate. The relative fluorescence units (RFU) were determined by subtracting background values (substrate-containing well without protease) from the raw fluorescence values. […]

FIPV = assay: Cell-based screening, FIPV in CRFK cells (Example 2); parameters: species or system feline infectious peritonitis virus; conditions: Alphacoronavirus 1, CRFK, read-out: Inhibition [ED50 (μM)] against various viruses: Coronavirus, FIPV
Method: (§1) 3. Cell-based screening of inhibitor. The effects of each inhibitor on the viral replication were examined. The list of viruses and corresponding cell lines are listed above in Table 2. Briefly, confluent cells were inoculated with virus at a MOI of 5 or 0.05 for 1 hr, and medium was replaced with medium containing mock-medium or each compound (up to 100 μM). The virus infected cells were further incubated for up to 96 hrs, and the replication of virus was measured by TCID50 assay with the 10-fold dilution of each sample used for virus titration (Reed and Muench, 1938). In some viruses, the virus protein and genome expression levels were detected by Western blot analysis and real-time qRT-PCR, respectively, as described below. The IC50s of the compounds were calculated.

[1] = biological target: SARS-CoV 3CLpro (codon-optimized, N-terminal 6 His, recombinant) (Severe acute respiratory syndrome coronavirus, UniProt P0C6X7); assay: biochemical
FCV [2] = assay: Cell-based screening, FCV in CRFK cells (Example 2); conditions: Feline calicivirus, CRFK, read-out: Inhibition [ED50 (μM)] against various viruses: Calicivirus, FCV
Method: as §1

[3] = biological target: recombinant 3C or 3CL of MD145 (Norovirus Hu/GII.4/MD145-12/1987/US (Maryland virus), UniProt Q8V0P3); assay: FRET protease assay, MD145 3CL (Example 2); type: biochemical, norovirus strain MD145
Sequence of recombinant 3C or 3CL of MD145 (Q8V0P3 entry or part of it): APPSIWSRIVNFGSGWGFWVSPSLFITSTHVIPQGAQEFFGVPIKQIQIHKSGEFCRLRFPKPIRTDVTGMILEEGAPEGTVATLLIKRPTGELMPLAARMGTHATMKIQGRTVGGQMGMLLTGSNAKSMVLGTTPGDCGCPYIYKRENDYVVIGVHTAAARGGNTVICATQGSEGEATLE

HAV [4] = assay: Cell-based screening, HAV (Example 2); parameters: species or system hepatitis A virus; conditions: Picornaviridae, read-out: Inhibition [ED50 (μM)] against various viruses: Picornavirus, HAV
Method: as §1

EV71 = assay: Cell-based screening, EV71 in Vero cells (Example 2); parameters: species or system enterovirus 71; conditions: Enterovirus A, EV71, Vero, read-out: Inhibition [ED50 (μM)] against various viruses: Picornavirus, EV71
Method: as §1

[5] = system: 3CLpro of NV, MD145, MNV-1; type: biochemical, norovirus; conditions: optimized FRET-based protease assay
[6] = biological target: Norwalk virus 3CL protease (Norovirus, UniProt Q83883); assay: Recombinant NV protease fluorogenic substrate inhibition assay (Example 1); type: biochemical; conditions: 30 min pre-incubation, 30° C., pH 8.0
Sequence of Norwalk virus 3CL protease (Q83883 1101-1281): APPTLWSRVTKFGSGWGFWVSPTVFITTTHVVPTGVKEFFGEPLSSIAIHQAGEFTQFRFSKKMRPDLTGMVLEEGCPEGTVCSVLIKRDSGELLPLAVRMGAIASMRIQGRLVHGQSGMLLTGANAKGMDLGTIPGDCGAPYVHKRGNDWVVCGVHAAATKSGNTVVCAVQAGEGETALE
Method: After a 30 minute incubation period, 5 μL of 12 μM Edans-[…]-Dabcyl (SEQ ID NO:1) substrate in DMSO was then added and the increase in fluorescence was monitored for 30 minutes at an excitation and emission wavelength of 360 and 460 nm, respectively. Using a HORIBA FluoroMax 4 spectrofluorometer. Hydrolysis curves were linear. The final enzyme and substrate concentrations were 2.5 μM and 300 nM, respectively. […] Furthermore, the nature of the cap was also important (compare, for example, inhibitors A and D).

[7] = biological target: MD145 3CLpro (codon-optimized, full-length, N-terminal 6 His, recombinant) (Lordsdale virus, UniProt P54634); assay: biochemical; parameters: species or system norovirus strain MD145 (human norovirus GII)
Sequence of MD145 3CLpro (codon-optimized, full-length, N-terminal 6 His, recombinant) (P54634 1009-1189): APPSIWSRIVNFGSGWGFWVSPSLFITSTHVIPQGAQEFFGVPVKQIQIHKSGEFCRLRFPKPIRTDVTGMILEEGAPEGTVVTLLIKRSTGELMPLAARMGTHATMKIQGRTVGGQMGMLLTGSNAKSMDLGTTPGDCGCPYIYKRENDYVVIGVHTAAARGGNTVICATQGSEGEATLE

MNV-1 [8] = assay: Cell culture system, MNV-1 replication in RAW267.4 cells (Example 3); type: cell-based, murine norovirus; conditions: RAW267.4 cells
FCV [9] = assay: Cell culture system, FCV replication in CRFK cells (Example 3); type: cell-based, feline calicivirus; conditions: CRFK cells
Teschovirus = assay: organism not typed; type: cell-based, porcine teschovirus; conditions: read-out: Inhibition [ED50 (μM)] against various viruses: Picornavirus, Teschovirus
TGEV = assay: Cell-based screening, TGEV in ST cells (Example 2); parameters: species or system transmissible gastroenteritis virus; conditions: Alphacoronavirus 1, read-out: Inhibition [ED50 (μM)] against various viruses: Coronavirus, TGEV
Method: as §1

MHV = assay: Cell-based screening, MHV in CCL-9.1 cells (Example 2); parameters: species or system mouse hepatitis virus; conditions: Murine coronavirus, read-out: Inhibition [ED50 (μM)] against various viruses: Coronavirus, MHV
229E = assay: Cell-based screening, 229E in MRC-5 cells (Example 2); conditions: Human coronavirus 229E, MRC5, read-out: Inhibition [ED50 (μM)] against various viruses: Coronavirus, 229E
Method: as §1

[10] = system: Norwalk virus (HG23 cells); assay: microbe, parasite or virus in culture; type: cell-based; conditions: HG23, read-out: Inhibition [ED50 (μM)] against various viruses: Calicivirus, HG23 cells
MNV-1 [11] = assay: Cell-based screening, MNV-1 in RAW267.4 cells (Example 2); parameters: species or system murine norovirus; conditions: Norwalk virus, RAW267.4, read-out: Inhibition [ED50 (μM)] against various viruses: Calicivirus, MNV-1
Method: as §1

[12] = biological target: HAV 3Cpro (full-length, 6 His, recombinant) (Human hepatitis A virus genotype IB, UniProt P08617); assay: biochemical; parameters: species or system human hepatitis A virus (strain HM175)
Sequence of HAV 3Cpro (full-length, 6 His, recombinant) (P08617 1520-1738): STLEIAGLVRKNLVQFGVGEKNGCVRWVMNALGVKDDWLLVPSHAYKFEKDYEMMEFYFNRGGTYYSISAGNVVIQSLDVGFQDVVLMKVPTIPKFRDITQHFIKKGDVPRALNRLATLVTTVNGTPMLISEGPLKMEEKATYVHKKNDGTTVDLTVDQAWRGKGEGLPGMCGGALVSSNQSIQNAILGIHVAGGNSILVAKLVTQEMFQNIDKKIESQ

[13] = PK and oral bioavailability studies in rats; conditions: 20 mg/Kg (body weight), IV or PO
human norovirus (HuNoV) = assay: Gnotobiotic pig model of human norovirus infection, first trial; type: in vivo, gnotobiotic (Gn) pigs
Description: We investigated if fecal norovirus shedding in human norovirus-inoculated gnotobiotic (Gn) pigs is altered the by treatment with GC376. […] On day 2 after antiviral treatment, they were inoculated orally with 1.0×10^10 genome equivalent (GE) of Human norovirus (GII.12 HS206). Rectal swabs were collected daily from each animal throughout the experiment, and fecal virus shedding and clinical signs were monitored daily until virus was not detectable by real-time qRT-PCR. The Table below summarizes the results.

TGEV 3CL protease = TGEV 3CL protease (Porcine transmissible gastroenteritis coronavirus, UniProt P0C6Y5); assay: FRET-based protease assay, TGEV 3CL protease (Example 5); type: biochemical, TGEV Miller strain; conditions: compound at 50 μM final concentration
Sequence of TGEV 3CL protease (P0C6Y5 2879-3180): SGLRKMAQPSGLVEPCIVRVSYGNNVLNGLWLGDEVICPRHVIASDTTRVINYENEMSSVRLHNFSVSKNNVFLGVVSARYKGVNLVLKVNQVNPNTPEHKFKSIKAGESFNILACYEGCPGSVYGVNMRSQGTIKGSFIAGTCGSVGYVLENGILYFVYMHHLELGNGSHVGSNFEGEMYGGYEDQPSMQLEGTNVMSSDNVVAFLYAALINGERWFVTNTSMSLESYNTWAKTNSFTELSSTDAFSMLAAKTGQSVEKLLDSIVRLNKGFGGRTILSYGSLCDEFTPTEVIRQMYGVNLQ
Description: The 3CL proteases are highly conserved among all coronaviruses, and feline coronavirus 3CL protease is closely related TGEV 3CL protease. Therefore we cloned and expressed the TGEV 3CL protease for the FRET assay. The cDNA encoding the full length of 3CL protease of TGEV Miller strain was amplified with RT-PCR as previously described. The primers contained the nucleotide sequence of the 3CL protease for cloning as well as the nucleotides for 6 Histidine in the forward primer. The amplified product was subcloned to pET-28a(+) vector (GenScript, Piscataway, N.J.). The expression and purification of the 3CL protease was performed with a standard method described previously by our lab (Chang et al., 2012b; Takahashi et al., 2012; Tiew et al., 2011).
Our protease inhibitor compounds and commercial cathepsin inhibitors CA074-Me and E64d were prepared in DMSO as stock solutions (10 mM), and further diluted in assay buffer consisting of 20 mM HEPES, 0.4 mM EDTA, 30% glycerol, 120 mM NaCl, and 4 mM DTT at pH 6. […] TGEV 3CL protease at a final concentration of 0.1˜0.2 μM and the substrate (Dabcyl-[…]-Edans; SEQ ID NO:2) at 10 μM were used for the studies. The substrate was purchased from Bachem Americas, Inc (Torrance, Calif.). Compounds at various concentrations (0˜50 μM) were pre-incubated with TGEV 3CL protease in 25 μl for 30 min at 37° C., and the same volume of substrate was added to a 96-well black plate. The mixtures were then incubated at 37° C. for 60 min, and fluorescence readings were obtained on a microplate reader at 360 nm excitation and 480 nm emission wavelengths. The relative fluorescence units (RFU) were calculated by subtracting background (substrate control well without protease) from the fluorescence readings. The dose-dependent FRET inhibition curves were fitted with variable slope (four parameters) using GraphPad Prism software (La Jolla, Calif.) in order to determine the compound concentration that gives a half-maximum response (IC50).

[14] = system: human norovirus (GII.12 HS206); assay: Gnotobiotic pig model of human norovirus infection, repeat at 100 mg/kg/day; type: in vivo; conditions: Gn pigs
Description: After antiviral treatment or HuNoV inoculation, clinical signs and fecal virus shedding were monitored daily through day 14.

MNV-1 [15] = conditions: MNV-1 passaged in the presence of the drug
HAV [16] = assay: Cell culture system, HAV replication in FRhK-4 cells (Example 3); type: cell-based, hepatitis A virus
[17] = Gn pigs, oral 25 mg/kg twice a day 10 days then approx. 12.5 mg/kg twice a day 5 days
[18] = same regimen, detection limit 4.7 log10 GE/ml
[19] = oral 100 mg/kg once a day for 5 days

Sequence of HAV 3Cpro (P08617 1520-1738): as the sequence (P08617 1520-1738) above

## CC(C)C[C@H](NC(=O)OCc1ccccc1)C(=O)N[C@@H](CC1CCNC1=O)C(=O)C(=O)NC(C)C (stereo partly shown) [GC375]
HAV 3Cpro
  inhibitory effect on HAV 3Cpro (in words): weak but appreciable inhibitory effects
FIPV
  EC50: 1.5 µM
[1]
  IC50: 4.66 ± 0.19 µM
FCV [2]
  EC50: 4.5 µM
[3]
  IC50: 6.4 µM
HAV [4]
  EC50: 20 µM
EV71
  EC50: 15 µM
[5]
  effect on the activity of 3CLpro of NV, MD145, MNV-1 (in words): lower than those of GC373 and GC376
[6]
  inhibitory activity against Norwalk virus 3CL protease (in words): devoid of inhibitory activity
[7]
  IC50: 4.03 µM
MNV-1 [8]
  antiviral effects against MNV-1: no effects at concentrations up to: > 50 µM
FCV [9]
  antiviral effects against FCV: no effects at concentrations up to: > 50 µM
Teschovirus
  EC50: 0.2 µM
TGEV
  EC50: 0.2 µM
MHV
  EC50: 4.5 µM
229E
  EC50: 0.15 µM
[10]
  EC50: 3.2 µM
MNV-1 [11]
  EC50: 85 µM
[12]
  IC50: 42.6 ± 2.61 µM
[13]
  oral bioavailability, % F: 16 % F

## CC(C)C[C@H](NC(=O)OCc1ccccc1)C(=O)N[C@@H](C[C@@H]1CCNC1=O)C(O)S(=O)(=O)[O-].[Na+] (stereo partly shown) [GC376]
Human norovirus (HuNoV); [17]
  Mean duration of virus shedding, Tx (+) at PIDs 1-13: 7.5
  Mean onset of virus shedding (PID): 2.3 PID
Human norovirus (HuNoV); HuNoV-inoculated Gn pigs
  effect of oral treatment on virus shedding compared to untreated animals (in words): significantly reduced the duration of virus shedding
Human norovirus (HuNoV); same regimen
  Overall duration of virus shedding at PID1-27: 7.5
Human norovirus (HuNoV); same regimen, after treatment discontinued
  Mean duration of virus shedding, Tx (−) at PIDs 14-27: 0
Human norovirus (HuNoV); [18]
  Mean log10 viral titer/rectal swab (GE/ml), Overall viral titer shed at PIDs 1-27: 4.86 log10 GE/ml
  Mean log10 viral titer/rectal swab (GE/ml), Tx (+) at PIDs 1-13: 4.98 log10 GE/ml
  Mean log10 viral titer/rectal swab (GE/ml), Tx (−) at PIDs 14-27: <4.70 log10 GE/ml
TGEV 3CL protease
  inhibition of the activity of TGEV 3CL protease (in words): remarkably inhibited
[5]
  effect on the activity of 3CLpro of NV, MD145, MNV-1 (in words): highly effective
[14]; [19]
  Mean duration of virus shedding (SEM), Tx (+) at PIDs 1-5: 3.3 (0.3)
  Mean duration of virus shedding (SEM), Tx (−) at PIDs 6-14: 4.0 (2.0)
  Mean log10 viral titer/rectal swab (GE/ml) (SEM), Overall viral titer shed at PIDs 1-14: 5.17 (0.08)^B log10 GE/ml
  Mean log10 viral titer/rectal swab (GE/ml) (SEM), Tx (+) at PIDs 1-5: 5.28 (0.13)^b,A log10 GE/ml
  Mean log10 viral titer/rectal swab (GE/ml) (SEM), Tx (−) at PIDs 6-14: 5.11 (0.10)^B log10 GE/ml
  fecal viral RNA titers after treatment was discontinued vs 30% DMSO vehicle pigs (in words): significantly lower fecal viral RNA titers
[14]; oral 100 mg/kg once a day for 5 days from day 1 after inoculation
  Mean onset of virus shedding (PID) (SEM): 2.7 (0.3) PID
MNV-1 [15]
  increase of IC50 at passage number 15: up to 10 fold
HAV [16]
  effectiveness against the replication of HAV in cells (in words): no or weak effectiveness
[13]
  oral bioavailability, % F: 4 % F

Source: patent US9474759B2 (priority 2011, dated 2016)
